Among the data in ChEMBL document CHEMBL1128946, “Novel inhibitors of influenza sialidases related to GG167 structure-activity, crystallographic and Molecular dynamics studies with 4H-pyran-2-carboxylic acid 6-carboxamides” (Bioorg Med Chem Lett, 1996) are IC50 values, retold here.

The target in the test is Neuraminidase (Influenza A virus (A/Puerto Rico/8/1934(H1N1)), UniProt P03468). Briefly: Inhibition of influenza A sialidase (neuraminidase). Set-up: species or system Influenza A virus (strain: A/PR/8/34).

SMILES strings stand for the structures. pIC50: −log10 of the molar value.

With `CNC(=O)[C@@H]1OC(C(=O)O)=C[C@H](N)[C@H]1NC(C)=O`, the negative-log IC50 (pIC50) is 3.72. For `CC(=O)N[C@@H]1[C@@H](N=C(N)N)C=C(C(=O)O)O[C@H]1C(=O)N(C)C` the value was 7.60.

`CCCN(CCC)C(=O)[C@@H]1OC(C(=O)O)=C[C@H](N)[C@H]1NC(C)=O` had a pIC50 of 8.52. Compared with the last compound, the pIC50 is 0.92 log units higher.

With `CCN(CCc1ccccc1)C(=O)[C@@H]1OC(C(=O)O)=C[C@H](N)[C@H]1NC(C)=O`, the negative logarithm of the IC50 (pIC50) was 8.30.

`CCN(CC)C(=O)[C@@H]1OC(C(=O)O)=C[C@H](N)[C@H]1NC(C)=O` had a pIC50 of 8.52. This pIC50 is 0.22 log units higher than that of the compound before.

In the case of `CCCN(CCc1ccccc1)C(=O)[C@@H]1OC(C(=O)O)=C[C@H](N=C(N)N)[C@H]1NC(C)=O`, the pIC50 is 8.30. This pIC50 is 0.22 log units lower than that of the compound before. The figure for `CCNC(=O)[C@@H]1OC(C(=O)O)=C[C@H](N)[C@H]1NC(C)=O` is 4.89. For `CNC(=O)[C@@H]1OC(C(=O)O)=C[C@H](N=C(N)N)[C@H]1NC(C)=O` the value was 5.15. For `CCCCN(CCCC)C(=O)[C@@H]1OC(C(=O)O)=C[C@H](N=C(N)N)[C@H]1NC(C)=O` the value was 7.80; for `CC(=O)N[C@H]1[C@H]([C@H](O)[C@H](O)CO)OC(C(=O)O)=C[C@@H]1N`, 6.52; for `CC(=O)N[C@@H]1[C@@H](N)C=C(C(=O)O)O[C@H]1C(=O)NCCc1ccccc1`, 4.92.

As for `CCN(CC)C(=O)[C@@H]1OC(C(=O)O)=C[C@H](NC(=N)N)[C@H]1NC(C)=O`, the pIC50 is 9.00. The figure for `CC(=O)N[C@@H]1[C@@H](N)C=C(C(=O)O)O[C@H]1C(=O)N(C)CCc1ccccc1` is 6.49. The figure for `CCCN(CCc1ccc(-c2ccccc2)cc1)C(=O)[C@@H]1OC(C(=O)O)=C[C@H](N)[C@H]1NC(C)=O` is 8.52.
